Laboratory results as given in PMC7968037 (RSC Advances, 2021).
Read-outs that look alike come from different tables or passages of the source.

Experiments:
in vitro [1] = conditions: human, Cytotoxicity [log(EC50 [μM]) ± SEM], cellular necrosis, MCF-10A, 72 h exposure, 0.32–320 μM; values are logarithms
in vitro [2] = conditions: human, Cytotoxicity [log(EC50 [μM]) ± SEM], cellular necrosis, MCF-7, 72 h exposure, 0.32–320 μM; values are logarithms
[3] = test system: benign MCF-10A breast cells; conditions: tested 0.32–320 μM; for Concentrations that exerted significant toxicity compared to vehicle: 72 h, p ≤ 0.05, Fig. 5D′; for Concentrations that exerted significant cytotoxicity compared to vehicle: 24 h, p ≤ 0.05, Fig. 5D
[4] = test system: MCF-7 (ER+/PR+/HER2−) breast cancer cells; assay: cells; format: cell-based; conditions: for IC50: Homo sapiens, read-out: Growth inhibition [log(IC50 [μM]) ± SEM] (converted); for Early inhibition of growth compared to vehicle-treated cells: MCF-7, 24 h, tested 0.32–320 μM, Fig. 4A
[5] = test system: SK-BR-3 (ER−/PR−/HER2+) breast cancer cells; assay: cells; format: cell-based; conditions: Homo sapiens, read-out: Growth inhibition [log(IC50 [μM]) ± SEM] (converted)
[6] = test system: MDA-MB-231 (triple negative) breast cancer cells; assay: cells; format: cell-based; conditions: Homo sapiens, read-out: Growth inhibition [log(IC50 [μM]) ± SEM] (converted)
in vitro [7] = conditions: human, Cytotoxicity [log(EC50 [μM]) ± SEM], cellular necrosis, SK-BR-3, 72 h exposure, 0.32–320 μM; values are logarithms
[8] = test system: benign MCF-10A breast cells; assay: cells; format: cell-based; conditions: for Change of cell growth compared to vehicle-treated cells: tested 0.32–320 μM; for IC50: Homo sapiens, read-out: Growth inhibition [log(IC50 [μM]) ± SEM] (converted)
in vitro [9] = conditions: human, Cytotoxicity [log(EC50 [μM]) ± SEM], cellular necrosis, MDA-MB-231, 72 h exposure, 0.32–320 μM; values are logarithms

Row | Structure (SMILES) | IC50 ([4]; MCF7, 24 h) | IC50 ([4]; MCF7, 72 h) | IC50 ([5]; SK-BR-3, 24 h) | IC50 ([5]; SK-BR-3, 72 h) | IC50 ([6]; MDA-MB-231, 24 h) | IC50 ([6]; MDA-MB-231, 72 h) | EC50 (in vitro [1]) | EC50 (in vitro [2]) | Concentrations that exerted significant toxicity compared to vehicle [3] | EC50 (in vitro [7]) | Change of cell growth compared to vehicle-treated cells ([8]; 24 h, Fig. 4D) | Change of cell growth compared to vehicle-treated cells ([8]; 72 h, Fig. 4D′) | IC50 ([8]; 24 h) | IC50 ([8]; 72 h) | EC50 (in vitro [9]) | Concentrations that exerted significant cytotoxicity compared to vehicle [3] | Early inhibition of growth compared to vehicle-treated cells [4]
1 | C=C(C[C@H](N)C(=O)O)C(N)=O [Compound 1, (S)-2-Amino-4-carbamoylpent-4-enoic acid] | > 320 µM | > 320 µM | 7.94 µM | 11.2 µM | 141 µM | > 320 µM | > 316 µM | 2.95 µM | 3.2 µM | 2.04 µM | significant increases | significant increases | > 316 µM | > 316 µM | > 316 µM | – | –
2 | C=C(C[C@H](N)C(=O)O)C(=O)Nc1ccccc1 [Compound 3, (S)-2-Amino-4-(phenylcarbamoyl)pent-4-enoic acid] | > 320 µM | 251 µM | 37.2 µM | 1.66 µM | > 320 µM | > 320 µM | > 316 µM | 2.04 µM | – | > 316 µM | – | significant increases | > 316 µM | > 316 µM | > 316 µM | – | –
3 | C=C(C[C@H](N)C(=O)O)C(=O)NCc1ccc(F)cc1 [Compound 5, (S)-2-Amino-4-((4-fluorobenzyl)carbamoyl)pent-4-enoic acid] | > 320 µM | 85.1 µM | 3.89 µM | 4.47 µM | > 320 µM | > 320 µM | > 316 µM | 55 µM | 320 µM | 0.389 µM | significant increases | significant increases | > 316 µM | > 316 µM | 263 µM | 320 µM | –
4 | C=C(C[C@H](N)C(=O)O)C(=O)Nc1ccc(Cl)cc1 [Compound 10, (S)-2-Amino-4-((4-chlorophenyl)carbamoyl)pent-4-enoic acid] | > 320 µM | 209 µM | 79.4 µM | 3.98 µM | > 320 µM | > 320 µM | > 316 µM | 93.3 µM | 100 µM | > 316 µM | – | significant increases | > 316 µM | > 316 µM | > 316 µM | – | exerted early inhibition
5 | O=C(c1cc(Cc2n[nH]c(=O)c3ccccc23)ccc1F)N1CCN(C(=O)C2CC2)CC1 [Olaparib, reference compound] | > 316 µM | 107 µM | 1.62 µM | 1.05 µM | 162 µM | 155 µM | > 316 µM | 26.3 µM | 320 µM | 0.0603 µM | – | – | > 316 µM | > 316 µM | 97.7 µM | 320 µM | –
6 | CC/C(=C(\c1ccccc1)c1ccc(OCCN(C)C)cc1)c1ccccc1 [Tamoxifen, reference compound] | – | – | – | – | – | – | > 316 µM | – | – | 0.331 µM | – | – | – | – | 30.9 µM | – | –

The next lines start with results.

Row | IC50 ([4]; MCF7, 24 h) | IC50 ([4]; MCF7, 72 h) | IC50 ([5]; SK-BR-3, 24 h) | IC50 ([5]; SK-BR-3, 72 h) | IC50 ([6]; MDA-MB-231, 24 h) | IC50 ([6]; MDA-MB-231, 72 h) | Structure (SMILES) | EC50 (in vitro [1]) | EC50 (in vitro [2]) | Concentrations that exerted significant toxicity compared to vehicle [3] | EC50 (in vitro [7]) | Change of cell growth compared to vehicle-treated cells ([8]; 24 h, Fig. 4D) | Change of cell growth compared to vehicle-treated cells ([8]; 72 h, Fig. 4D′) | IC50 ([8]; 24 h) | IC50 ([8]; 72 h) | EC50 (in vitro [9]) | Concentrations that exerted significant cytotoxicity compared to vehicle [3] | Early inhibition of growth compared to vehicle-treated cells [4]
7 | > 320 µM | 195 µM | 74.1 µM | 0.562 µM | > 320 µM | > 320 µM | C=C(C[C@H](N)C(=O)O)C(=O)NCc1ccccc1 [Compound 4, (S)-2-Amino-4-(benzylcarbamoyl)pent-4-enoic acid] | > 316 µM | 219 µM | – | > 316 µM | – | – | > 316 µM | > 316 µM | > 316 µM | – | –
8 | > 320 µM | > 320 µM | 12.9 µM | 3.16 µM | 219 µM | > 320 µM | C=C(C[C@H](N)C(=O)O)C(=O)NCc1ccc([N+](=O)[O-])cc1 [Compound 6, (S)-2-Amino-4-((4-nitrobenzyl)carbamoyl)pent-4-enoic acid] | > 316 µM | 20.4 µM | – | 0.437 µM | significant increases | – | > 316 µM | > 316 µM | 269 µM | – | –
9 | 229 µM | > 320 µM | 316 µM | 0.575 µM | > 320 µM | > 320 µM | C=C(C[C@H](N)C(=O)O)C(=O)NC1CC1 [Compound 7, (S)-2-Amino-4-(cyclopropylcarbamoyl)pent-4-enoic acid] | > 316 µM | > 316 µM | – | > 316 µM | – | significant increases | > 316 µM | > 316 µM | > 316 µM | – | exerted early inhibition
10 | > 320 µM | > 320 µM | 135 µM | 0.617 µM | > 320 µM | > 320 µM | C=C(C[C@H](N)C(=O)O)C(=O)N1CCCCC1 [Compound 8, (S)-2-Amino-4-(piperidine-1-carbonyl)pent-4-enoic acid] | > 316 µM | 200 µM | – | > 316 µM | – | significant increases | > 316 µM | > 316 µM | > 316 µM | – | –
11 | > 320 µM | 75.9 µM | 11.5 µM | 4.79 µM | > 320 µM | > 320 µM | C=C(C[C@H](N)C(=O)O)C(=O)Nc1ccc(F)cc1 [Compound 9, (S)-2-Amino-4-((4-fluorophenyl)carbamoyl) pent-4-enoic acid] | > 316 µM | 2.29 µM | – | 0.0603 µM | – | – | > 316 µM | > 316 µM | > 316 µM | – | –
